Assay results taken from patent US11701361B2, “p110-delta inhibitors treat and prevent autoimmunity while sparing the ability to mount an immune response to exogenous immunogens” (THE REGENTS OF THE UNIVERSITY OF COLORADO, priority 2018, dated 2023).

Key:
[1] = system: MD4 B cells; test: MD4 B cell adoptive transfer, response to HEL-SRBC immunization; type: in vivo, mouse
Description: (§1) 2 hours before adoptive transfer, C57BL/6 recipient mice received 200 rads irradiation. […] B cells from donor mice were isolated via depletion of CD43+ cells with anti-CD43-conjugated magnetic beads (MACS anti-mouse CD43; Miltenyi Biotec). Alternatively, CD4+ T cells were isolated via CD4 positive selection (MACS anti-mouse CD4 (L3T4) Miltenyi Biotec). Resultant populations were >97% pure based on flow cytometric analyses. Donor B cells were labeled with either CellTrace Violet (Molecular Probes) or CFSE (Molecular Probes) at 5 μM for 5 minutes at room temperature prior to transfer. Donor CD4 T cells were labeled with CFSE (Molecular Probes) at 5 μM for 5 minutes at room temperature prior to transfer. 1-2×10^6 donor cells in 200 μl PBS were adoptively transferred via IV injection. 24 hours post transfer, tamoxifen was administered to activate Cre. Tamoxifen (Sigma-Aldrich) was dissolved in 100% corn oil (Sigma-Aldrich) at 20 mg/ml. Recipient mice were injected IP with 100 μl (2 mg) on two consecutive days.
(§2) Diet dose (DD) is calculated by multiplying the single daily dose (SD) by the body weight of a mouse (BW) and dividing that by the daily food intake (FI) [DD=(SD×BW)/FI].
(§3) For VH125.NOD experiments animals are placed on control chow immediately after weaning.
HEL conjugated to SRBCs was used to produce antigen for experiments with MD4 B cells. SRBCs (Colorado Serum Company) were stored in Alsever's solution at 4° C. SRBCs are washed 3 times in PBS prior to use. 1 ml of 50 mg/ml of the chemical crosslinker N-(3-Dimethylaminopropyl)-N-ethylcarbodiimide hydrochloride (Sigma-Aldrich) was added to 1 ml packed SRBCs and 15 ml of 5 mg/ml HEL (Sigma-Aldrich), mixed and rotated at room temperature for 45 minutes. Mice were immunized IP with 200 μl of a 5% HEL-SRBC in PBS. For NP4Ova-Alum immunizations, 10 mg/ml alum and 5 mg/ml NP4Ova were mixed to a final concentration of 250 μg/ml NP4Ova and 2.5 mg/ml alum and rotated for 3 hours at room temperature. […] Mice were then immunized with NP4Ova-alum IP in 200 μl/mouse, and responses were measured on day 7 and day 14 post-immunization.
(§4) Spleens were mechanically disrupted, single-cell suspensions were generated, and red blood cells were lysed with ammonium chloride TRIS. Cells were resuspended in PBS containing 1% FBS and incubated with indicated antibodies. For analysis of cell surface markers, antibodies against the following molecules were used: B220-PE (BioLegend), B220-BV786 (BD Biosciences), B220-BV510 (BioLegend), CD4-BV711 (BioLegend), CD8-BV421 (BioLegend), CD138-PECy7 (BioLegend), CD69-BV786 (BD Biosciences), CD86-PerCPCy5.5 (BioLegend). After cell surface staining, the cells were fixed and permeabilized with Cytofix/Cytoperm (BD) per manufacturer's instructions and stained with Dylight650-E4 anti-Ars/A1 idiotype (produced and conjugated in our laboratory) OR HEL-650 (produced and conjugated in our laboratory) and Alexa Fluor 488-anti-GFP (rabbit polyclonal; Life Technologies). Events were collected on a CyAn ADP (Dako) and subsequent analysis using FlowJo software (Tree Star).
For detection of IgM^a anti-Ars antibodies, microtiter plates were coated with 10 μg/ml Ars-BSA16 in PBS and blocked with 2 mg/ml BSA in PBS 0.05% Tween-20. For detection of IgM^a anti-HEL antibodies, microtiter plates were coated with 10 μg/ml HEL in PBS and blocked with 2 mg/ml BSA in PBS 0.05% Tween-20. For detection of total NP-specific IgM and IgG, microtiter plates were coated with 20 μg/ml NP27BSA and blocked with 2 mg/ml BSA in PBS 0.05% Tween-20. For detection of high affinity NP-specific IgM and IgG, microtiter plates were coated with 20 μg/ml NP2BSA and blocked with 2 mg/ml BSA in PBS 0.05% Tween-20. Serial dilutions of mouse serum in PBS were added and incubated overnight at 4° C. Ars/A1-derived IgM^a antibodies and MD4-derived HEL IgM^a antibodies were detected with biotinylated DS.1 anti-IgM^a (BD Pharmingen) in PBS, followed by Streptavidin-HRP (Thermo Fisher Scientific). […]

[2] = system: SHP-1^−/− B cells; test: adoptive transfer of autoreactive SHP-1-/- Ars/A1 B cells, loss of anergy; type: in vivo, mouse
Source text: Except where otherwise indicated, 6-16 week old mice were used in all experiments. Both male and female mice were used, but experiments were sex matched and both sexes gave identical results, with the exception of only female mice being used in the VH125.NOD experiments as female mice develop accelerated disease. hCD20-TamCre animals (Khalil, et al. Science 336: 1178-81) were intercrossed with mice carrying the rosa26-flox-STOP-YFP allele (Srinivas, et al., BMC Dev. Biol. 1:4), generating mice in which YFP is expressed in B cells upon Cre activation. These mice were crossed with Ars/A1 (Benschop, et al., Immunity 14: 33-43) transgenic mice to generate hCD20-TamCre×rosa26-flox-STOP-YFP×Ars/A1 mice. B cells from these mice will be referred to as WT Ars/A1. These mice were also crossed with SHIP-1^flox/flox mice (Karlsson, et al. J Exp Med 198: 333-40). hCD20-TamCre×rosa26-flox-STOP-YFP×Ars/A1 mice were also crossed to PTEN^flox/flox mice (Anzelon, et al., Nat Immunol 4: 287-94) and SHP-1^flox/flox mice to generate mice in which SHIP-1, PTEN and SHP-1 deletion can be induced in anergic B cells. hCD20-TamCre×rosa26-flox-STOP-YFP×PTEN^flox/flox×Ars/A1 were crossed to hCD20-TamCre×rosa26-flox-STOP-YFP×SHIP-1^flox/flox×Ars/A1 to generate hCD20-TamCre×rosa26-flox-STOP-YFPx PTEN^flox/wt×SHIP-1^flox/wt×Ars/A1 to allow for the double haploinsufficiency of both PTEN and SHIP-1 within B cells.
as §1, §2, §3, §4
For detection of IgM^a anti-Ars antibodies, microtiter plates were coated with 10 μg/ml Ars-BSA16 in PBS and blocked with 2 mg/ml BSA in PBS 0.05% Tween-20. For detection of IgM^a anti-HEL antibodies, microtiter plates were coated with 10 μg/ml HEL in PBS and blocked with 2 mg/ml BSA in PBS 0.05% Tween-20. […]

[3] = 0.9375 mg/kg chow vs vehicle control, 5 days post immunization
[4] = 3.75 mg/kg and 30 mg/kg chow vs vehicle control, 5 days post immunization
[5] = 0.9375 mg/kg or 3.75 mg/kg chow vs vehicle

## CC[C@H](Nc1ncnc2nc[nH]c12)c1nc2cccc(F)c2c(=O)n1-c1ccccc1 [idelalisib, 5-fluoro-3-phenyl-2-[(1S)-1-(7H-purin-6-ylamino)propyl]-4(3H)-quinazolinone]
[1]; [3]
  HEL-specific ASCs/spleen: equivalent
  IgM anti-HEL antibody response: equivalent
[1]; 3.75 mg/kg and 30 mg/kg chow
  proliferation of recovered MD4 B cells: proliferated less than in controls
  recoverable transferred MD4 B cells in the spleen: significant decreases
[1]; [4]
  IgM anti-HEL antibody response: significantly reduced
  number of ASCs/spleen: reduced
[2]; [5]
  differentiation of SHP-1−/− B cells (plasmablasts): equivalent amounts
  proliferation of SHP-1−/− B cells: equivalent amounts
[2]; 30 mg/kg chow
  differentiation of SHP-1−/− B cells (plasmablasts): decreased
  proliferation of SHP-1−/− B cells: decreased
[2]; animals receiving idelalisib-containing chow
  recovery of adoptively transferred SHP-1−/− B cells from the spleens (trend of reduced recovery): not significant
[2]; high dose (30 mg/kg chow)
  autoimmunity (autoantibody, ASCs): blocked
[2]; low and intermediate dose (0.9375 and 3.75 mg/kg chow)
  loss of anergy caused by SHP-1 induced deficiency (autoantibody, ASCs): no effect
